According to PubChem BioAssay (NCI):
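Where inhibition never reached the appropriate level, the endpoint shown equals the highest concentration tested. Otherwise, values were interpolated linearly from a five-concentration, 48-hour dose response in 96-well plates. GI50 is the concentration that inhibits growth by half. At the TGI there is no net growth.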

Tests used:
Test in all cases: inhibition of tumour cell growth, NCI panel, 48 h
SR leukemia = test system: SR leukemia
K-562 leukemia = test system: K-562 leukemia
BT-549 breast = test system: BT-549 breast
MALME-3M melanoma = test system: MALME-3M melanoma
RXF 393 renal = test system: RXF 393 renal
NCI-H23 lung = test system: NCI-H23 lung
SK-MEL-28 melanoma = test system: SK-MEL-28 melanoma
HOP-92 NSCLC = test system: HOP-92 NSCLC
MDA-MB-231 breast = test system: MDA-MB-231 breast
NCI-H460 lung = test system: NCI-H460 lung
SF-539 CNS = test system: SF-539 CNS
M14 melanoma = test system: M14 melanoma
HL-60(TB) leukemia = test system: HL-60(TB) leukemia
SF-295 CNS = test system: SF-295 CNS
MDA-MB-435 = test system: MDA-MB-435
HCT-15 colon = test system: HCT-15 colon
CCRF-CEM leukemia = test system: CCRF-CEM leukemia
A498 renal = test system: A498 renal
HCT-116 colon = test system: HCT-116 colon
PC-3 prostate = test system: PC-3 prostate
OVCAR-8 ovarian = test system: OVCAR-8 ovarian
OVCAR-5 ovarian = test system: OVCAR-5 ovarian
MCF7 breast = test system: MCF7 breast
SNB-19 CNS = test system: SNB-19 CNS
SNB-75 CNS = test system: SNB-75 CNS
SK-MEL-5 melanoma = test system: SK-MEL-5 melanoma
HT29 colon = test system: HT29 colon
HCC-2998 colon = test system: HCC-2998 colon

Cc1ccc(N(CC(=O)Nc2ccc(S(=O)(=O)NC3CCN(C)CC3)cc2)S(=O)(=O)c2ccc(Cl)cc2)cc1
GI50 (SR leukemia): 2.33 µM
TGI (SR leukemia): 7.46 µM
GI50 (K-562 leukemia): 2.23 µM
TGI (K-562 leukemia): 5 µM
GI50 (BT-549 breast): 12.6 µM
TGI (BT-549 breast): 27.8 µM
GI50 (MALME-3M melanoma): 1.72 µM
TGI (MALME-3M melanoma): 3.65 µM
GI50 (RXF 393 renal): 1.65 µM
TGI (RXF 393 renal): 3.84 µM
GI50 (NCI-H23 lung): 10.1 µM
TGI (NCI-H23 lung): 24.5 µM
GI50 (SK-MEL-28 melanoma): 1.95 µM
TGI (SK-MEL-28 melanoma): 4.18 µM
GI50 (HOP-92 NSCLC): 1.86 µM
TGI (HOP-92 NSCLC): 8.64 µM
GI50 (MDA-MB-231 breast): 1.87 µM
TGI (MDA-MB-231 breast): 4.68 µM
GI50 (NCI-H460 lung): 2.02 µM
TGI (NCI-H460 lung): 4 µM
GI50 (SF-539 CNS): 1.85 µM
TGI (SF-539 CNS): 3.52 µM
GI50 (M14 melanoma): 1.79 µM
TGI (M14 melanoma): 3.42 µM
GI50 (HL-60(TB) leukemia): 2.21 µM
TGI (HL-60(TB) leukemia): 4.93 µM
GI50 (SF-295 CNS): 2.12 µM
TGI (SF-295 CNS): 5.49 µM
GI50 (MDA-MB-435): 1.86 µM
TGI (MDA-MB-435): 3.57 µM
GI50 (HCT-15 colon): 11.9 µM
TGI (HCT-15 colon): 27.5 µM
GI50 (CCRF-CEM leukemia): 2.94 µM
TGI (CCRF-CEM leukemia): 11.1 µM
GI50 (A498 renal): 13.4 µM
TGI (A498 renal): 28.8 µM
GI50 (HCT-116 colon): 1.69 µM
TGI (HCT-116 colon): 3.2 µM
GI50 (PC-3 prostate): 2.86 µM
TGI (PC-3 prostate): 10.7 µM
GI50 (OVCAR-8 ovarian): 3.61 µM
TGI (OVCAR-8 ovarian): 12.1 µM
GI50 (OVCAR-5 ovarian): 4.04 µM
TGI (OVCAR-5 ovarian): 17.1 µM
GI50 (MCF7 breast): 3.02 µM
TGI (MCF7 breast): 13.1 µM
GI50 (SNB-19 CNS): 4.27 µM
TGI (SNB-19 CNS): 21.5 µM
GI50 (SNB-75 CNS): 2.95 µM
TGI (SNB-75 CNS): 15.7 µM
GI50 (SK-MEL-5 melanoma): 1.83 µM
TGI (SK-MEL-5 melanoma): 3.29 µM
GI50 (HT29 colon): 2.88 µM
TGI (HT29 colon): 7.5 µM
GI50 (HCC-2998 colon): 2.1 µM
TGI (HCC-2998 colon): 5.25 µM
